Source: the CheMixHub viscosity set

Assay: xn = mol fraction of the nth substance listed

CCCC(C)O (configuration not stated) + COC(C)(C)C
viscosity [mPa·s], 100 kPa
Settings | x2 = 0.0811 | x2 = 0.1599 | x2 = 0.24 | x2 = 0.3501 | x2 = 0.44 | x2 = 0.56 | x2 = 0.65 | x2 = 0.74 | x2 = 0.8499 | x2 = 0.94
293.15 K | 2.815 | 1.943 | 1.344 | 0.97 | 0.774 | 0.621 | 0.546 | 0.496 | 0.436 | 0.39
298.15 K | 2.359 | 1.633 | 1.134 | 0.823 | 0.666 | 0.546 | 0.488 | 0.441 | 0.39 | 0.355
303.15 K | 1.994 | 1.378 | 0.98 | 0.705 | 0.574 | 0.474 | 0.424 | 0.39 | 0.35 | 0.321
308.15 K | 1.682 | 1.181 | 0.868 | 0.617 | 0.493 | 0.407 | 0.37 | 0.341 | 0.313 | 0.292
313.15 K | 1.419 | 1.001 | 0.728 | 0.514 | 0.407 | 0.337 | 0.313 | 0.296 | 0.275 | 0.263
318.15 K | 1.208 | 0.849 | 0.613 | 0.412 | 0.326 | 0.275 | 0.255 | 0.243 | 0.234 | 0.231
323.15 K | 1.032 | 0.744 | 0.524 | 0.345 | 0.268 | 0.226 | 0.211 | 0.2 | 0.197 | 0.2

CCCC(C)O (configuration not stated) + COc1ccccc1
viscosity [mPa·s], 101.33 kPa
Settings | x2 = 0.1007 | x2 = 0.2007 | x2 = 0.3001 | x2 = 0.4004 | x2 = 0.5005 | x2 = 0.5991 | x2 = 0.6973 | x2 = 0.798 | x2 = 0.897
303.15 K | 2.097 | 1.59 | 1.279 | 1.095 | 0.998 | 0.951 | 0.931 | 0.924 | 0.919
313.15 K | 1.557 | 1.234 | 1.025 | 0.903 | 0.845 | 0.823 | 0.816 | 0.811 | 0.801
323.15 K | 1.202 | 1.014 | 0.887 | 0.803 | 0.753 | 0.725 | 0.711 | 0.704 | 0.697
